Assays:
[1] = tested on: waterhemp; test: Test E postemergence; assay type: in vivo, Amaranthus rudis; settings: Amaranthus tuberculatus, post-emergence, Postemergence, scale 0 to 100, read-out: Plant response rating, Waterhemp
Procedure, shortened: (§1)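 Response was scored visually on a 0-100 scale (100 = complete control) versus controls after 14 to 21 days in the greenhouse. Test chemicals, formulated with surfactant in a non-phytotoxic solvent mixture, had been applied preemergence to seeds in silt loam soil or postemergence to 1- to 4-leaf plants in potting medium.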

[2] = tested on: winter wheat; test: Test D postemergence; assay type: in vivo, Triticum aestivum; settings: Triticum aestivum, post-emergence, scale 0 to 100 (0 no effect, 100 complete control), read-out: Plant response rating, Wheat, Winter
Procedure, shortened: (§2)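 Solvent/surfactant formulations are sprayed pre (silt loam) or post (1–4 leaf plants, 2–18 cm). Plants stay 7–21 days in controlled conditions before a visual 0–100 score is given.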

[3] = tested on: spring wheat; test: Test D postemergence; assay type: in vivo, Triticum aestivum; settings: Triticum aestivum, post-emergence, scale 0 to 100 (0 no effect, 100 complete control), read-out: Plant response rating, Wheat, Spring
Procedure, shortened: as §2

[4] = tested on: winter wheat; test: Test D preemergence; assay type: in vivo, Triticum aestivum; settings: Triticum aestivum, pre-emergence
Procedure, shortened: as §2

[5] = tested on: spring wheat; test: Test D preemergence; assay type: in vivo, Triticum aestivum; settings: Triticum aestivum, pre-emergence
Procedure, shortened: as §2

[6] = tested on: hairy beggarticks; test: Test E postemergence; assay type: in vivo, Bidens pilosa; settings: Bidens pilosa, post-emergence, read-out: Plant response rating, Beggarticks
Procedure, shortened: as §1

[7] = tested on: field bindweed; test: Test E postemergence; assay type: in vivo, Convolvulus arvensis; settings: Convolvulus arvensis, post-emergence, read-out: Plant response rating, Field Bindweed
Procedure, shortened: as §1

[8] = tested on: chickweed; test: Test D postemergence; assay type: in vivo, Stellaria media; settings: Stellaria media, post-emergence, scale 0 to 100 (0 no effect, 100 complete control), read-out: Plant response rating, Chickweed
Procedure, shortened: as §2

[9] = tested on: Brazilian crabgrass; test: Test E postemergence; assay type: in vivo, Digitaria horizontalis; settings: Digitaria horizontalis, post-emergence, read-out: Plant response rating, Crabgrass, Brazil
Procedure, shortened: as §1

[10] = tested on: Italian ryegrass; test: Test D preemergence; assay type: in vivo, Lolium multiflorum; settings: Lolium multiflorum, pre-emergence
Procedure, shortened: as §2

[11] = tested on: kochia; test: Test D preemergence; assay type: in vivo, Kochia scoparia; settings: Bassia scoparia, pre-emergence, scale 0-100, read-out: Plant response rating, Kochia
Procedure, shortened: as §2

[12] = tested on: corn; test: Test E postemergence; assay type: in vivo, Zea mays; settings: Zea mays, post-emergence
Procedure, shortened: as §1

[13] = tested on: pigweed; test: Test D postemergence; assay type: in vivo, Amaranthus retroflexus; settings: Amaranthus retroflexus, post-emergence, scale 0 to 100 (0 no effect, 100 complete control), read-out: Plant response rating, Pigweed
Procedure, shortened: as §2

[14] = Postemergence, 31 g ai/ha, scale 0 to 100
[15] = Postemergence, 62 g ai/ha, scale 0 to 100
[16] = Postemergence, 125 g ai/ha, scale 0 to 100
[17] = Postemergence, 250 g ai/ha, scale 0 to 100
[18] = postemergence, 16 g ai/ha, scale 0 to 100, 0 no effect, 100 complete control

Q: `N#Cc1cccc(Oc2ncc(Br)cn2)c1-n1cc(C(F)(F)F)cn1` [Compound 59, 3-[(5-bromo-2-pyrimidinyl)oxy]-2-[4-(trifluoromethyl)-1H-pyrazol-1-yl]benzonitrile] was tested. Which pest or weed control at 31 g/ha ([1]; 31 g ai/ha) did it give?
A: The pest or weed control at 31 g/ha was 65%.

Q: And the pest or weed control at 62 g/ha ([1]; 62 g ai/ha)?
A: The pest or weed control at 62 g/ha was 90%.

Q: And the pest or weed control at 125 g/ha ([1]; 125 g ai/ha)?
A: The pest or weed control at 125 g/ha was 90%.

Q: And the pest or weed control at 250 g/ha ([1]; 250 g ai/ha)?
A: Its pest or weed control at 250 g/ha is 100%.

Q: And the plant injury at 31 g/ha ([2]; 31 g ai/ha)?
A: Its plant injury at 31 g/ha is 10%.

Q: What about the plant injury at 62 g/ha ([2]; 62 g ai/ha) of the same molecule?
A: Its plant injury at 62 g/ha is 15%.

Q: And the plant injury at 125 g/ha ([2]; 125 g ai/ha)?
A: Its plant injury at 125 g/ha is 20%.

Q: And the plant injury at 250 g/ha ([2]; 250 g ai/ha)?
A: The plant injury at 250 g/ha was 20%.

Q: And the plant injury at 31 g/ha ([3]; 31 g ai/ha)?
A: The plant injury at 31 g/ha was 10%.

Q: What about the plant injury at 62 g/ha ([3]; 62 g ai/ha) of the same molecule?
A: The plant injury at 62 g/ha was 15%.

Q: And the plant injury at 125 g/ha ([3]; 125 g ai/ha)?
A: Its plant injury at 125 g/ha is 20%.

Q: What about the plant injury at 250 g/ha ([3]; 250 g ai/ha) of the same molecule?
A: Its plant injury at 250 g/ha is 25%.

Q: And the plant injury at 31 g/ha ([4]; 31 g ai/ha, scale 0 (no effect) to 100 (complete control), read-out: Plant response rating, Wheat, Winter)?
A: The plant injury at 31 g/ha was 0%.

Q: What about the plant injury at 62 g/ha ([4]; 62 g ai/ha, scale 0-100, read-out: Plant response rating, Wheat, Winter) of the same molecule?
A: Its plant injury at 62 g/ha is 5%.

Q: What about the plant injury at 125 g/ha ([4]; 125 g ai/ha, scale 0-100, read-out: Plant response rating, Wheat, Winter) of the same molecule?
A: Its plant injury at 125 g/ha is 5%.

Q: And the plant injury at 250 g/ha ([4]; 250 g ai/ha, scale 0-100, read-out: Plant response rating, Wheat, Winter)?
A: The plant injury at 250 g/ha was 35%.

Q: And the plant injury at 31 g/ha ([5]; 31 g ai/ha, scale 0 (no effect) to 100 (complete control), read-out: Plant response rating, Wheat, Spring)?
A: Its plant injury at 31 g/ha is 0%.

Q: What about the plant injury at 62 g/ha ([5]; 62 g ai/ha, scale 0-100, read-out: Plant response rating, Wheat, Spring) of the same molecule?
A: Its plant injury at 62 g/ha is 5%.

Q: What about the plant injury at 125 g/ha ([5]; 125 g ai/ha, scale 0-100, read-out: Plant response rating, Wheat, Spring) of the same molecule?
A: Its plant injury at 125 g/ha is 40%.

Q: What about the plant injury at 250 g/ha ([5]; 250 g ai/ha, scale 0-100, read-out: Plant response rating, Wheat, Spring) of the same molecule?
A: The plant injury at 250 g/ha was 55%.

Q: And the pest or weed control at 31 g/ha [6, 14]?
A: The pest or weed control at 31 g/ha was 60%.

Q: And the pest or weed control at 62 g/ha [6, 15]?
A: The pest or weed control at 62 g/ha was 60%.

Q: What about the pest or weed control at 125 g/ha [6, 16] of the same molecule?
A: The pest or weed control at 125 g/ha was 70%.

Q: What about the pest or weed control at 250 g/ha [6, 17] of the same molecule?
A: The pest or weed control at 250 g/ha was 95%.

Q: What about the pest or weed control at 16 g/ha [6, 18] of the same molecule?
A: Its pest or weed control at 16 g/ha is 50%.

Q: What about the pest or weed control at 31 g/ha [7, 14] of the same molecule?
A: Its pest or weed control at 31 g/ha is 60%.

Q: What about the pest or weed control at 62 g/ha [7, 15] of the same molecule?
A: Its pest or weed control at 62 g/ha is 65%.

Q: And the pest or weed control at 125 g/ha [7, 16]?
A: The pest or weed control at 125 g/ha was 70%.

Q: What about the pest or weed control at 250 g/ha [7, 17] of the same molecule?
A: Its pest or weed control at 250 g/ha is 80%.

Q: What about the pest or weed control at 16 g/ha [7, 18] of the same molecule?
A: The pest or weed control at 16 g/ha was 50%.

Q: And the pest or weed control at 31 g/ha ([8]; 31 g ai/ha)?
A: Its pest or weed control at 31 g/ha is 70%.

Q: And the pest or weed control at 62 g/ha ([8]; 62 g ai/ha)?
A: Its pest or weed control at 62 g/ha is 75%.

Q: And the pest or weed control at 125 g/ha ([8]; 125 g ai/ha)?
A: The pest or weed control at 125 g/ha was 95%.

Q: What about the pest or weed control at 250 g/ha ([8]; 250 g ai/ha) of the same molecule?
A: The pest or weed control at 250 g/ha was 95%.

Q: What about the pest or weed control at 31 g/ha [9, 14] of the same molecule?
A: Its pest or weed control at 31 g/ha is 15%.

Q: What about the pest or weed control at 62 g/ha [9, 15] of the same molecule?
A: The pest or weed control at 62 g/ha was 20%.

Q: And the pest or weed control at 125 g/ha [9, 16]?
A: Its pest or weed control at 125 g/ha is 25%.

Q: And the pest or weed control at 250 g/ha [9, 17]?
A: The pest or weed control at 250 g/ha was 50%.

Q: And the pest or weed control at 16 g/ha [9, 18]?
A: Its pest or weed control at 16 g/ha is 15%.

Q: And the pest or weed control at 31 g/ha ([10]; 31 g ai/ha, scale 0 (no effect) to 100 (complete control), read-out: Plant response rating, Ryegrass, Italian)?
A: The pest or weed control at 31 g/ha was 0%.

Q: And the pest or weed control at 62 g/ha ([10]; 62 g ai/ha, scale 0-100, read-out: Plant response rating, Ryegrass, Italian)?
A: The pest or weed control at 62 g/ha was 5%.

Q: What about the pest or weed control at 125 g/ha ([10]; 125 g ai/ha, scale 0-100, read-out: Plant response rating, Ryegrass, Italian) of the same molecule?
A: Its pest or weed control at 125 g/ha is 60%.

Q: What about the pest or weed control at 250 g/ha ([10]; 250 g ai/ha, scale 0-100, read-out: Plant response rating, Ryegrass, Italian) of the same molecule?
A: Its pest or weed control at 250 g/ha is 70%.

Q: And the pest or weed control at 31 g/ha ([11]; 31 g ai/ha)?
A: The pest or weed control at 31 g/ha was 90%.

Q: What about the pest or weed control at 62 g/ha ([11]; 62 g ai/ha) of the same molecule?
A: Its pest or weed control at 62 g/ha is 80%.

Q: What about the pest or weed control at 125 g/ha ([11]; 125 g ai/ha) of the same molecule?
A: The pest or weed control at 125 g/ha was 100%.

Q: What about the pest or weed control at 250 g/ha ([11]; 250 g ai/ha) of the same molecule?
A: Its pest or weed control at 250 g/ha is 100%.

Q: What about the corn plant response (injury) rating, 0-100 at 31 g/ha [12, 14] of the same molecule?
A: The corn plant response (injury) rating, 0-100 at 31 g/ha was 5%.

Q: What about the corn plant response (injury) rating, 0-100 at 62 g/ha [12, 15] of the same molecule?
A: The corn plant response (injury) rating, 0-100 at 62 g/ha was 10%.

Q: And the corn plant response (injury) rating, 0-100 at 125 g/ha [12, 16]?
A: Its corn plant response (injury) rating, 0-100 at 125 g/ha is 10%.

Q: What about the corn plant response (injury) rating, 0-100 at 250 g/ha [12, 17] of the same molecule?
A: The corn plant response (injury) rating, 0-100 at 250 g/ha was 15%.

Q: And the corn plant response (injury) rating, 0-100 at 16 g/ha [12, 18]?
A: The corn plant response (injury) rating, 0-100 at 16 g/ha was 5%.

Q: What about the pest or weed control at 31 g/ha ([13]; 31 g ai/ha) of the same molecule?
A: Its pest or weed control at 31 g/ha is 100%.

Q: And the pest or weed control at 62 g/ha ([13]; 62 g ai/ha)?
A: Its pest or weed control at 62 g/ha is 100%.

Q: And the pest or weed control at 125 g/ha ([13]; 125 g ai/ha)?
A: Its pest or weed control at 125 g/ha is 95%.

Q: What about the pest or weed control at 250 g/ha ([13]; 250 g ai/ha) of the same molecule?
A: The pest or weed control at 250 g/ha was 95%.
